The test system of test [1] is IgG response to murine surrogate PD-L1. The experiment in a line: ADA against murine surrogate PD-L1 in wild-type mice, ELISA (Example 7). Format: in vivo, C57BL/6 mice. The note with it: 40 mg/kg/day via food admix from one week before first immunization until day 23. On the procedure:
10-week-old female mice C57BL/6 were purchased from Charles River Laboratories (Germany) and housed at the animal facilities in room with air-conditioned under a 12 hours light/dark cycle in macrolon boxes with enriched environment and free access to water and food. 10 mg/kg of muPD-L1 (P1AE4930-001) were injected at day 1, 8 and 15 intravenously to the group 4 (n=10 mice) and at day 1, 8, 15 and 22 to the group 5 (n=10 mice) respectively. The dosage of (2S,4R)-4-[4-(1-methyl-1H-pyrazol-4-yl)-2-trifluoromethyl-benzenesulfonyl]-1-(1-trifluoromethyl-cyclopropanecarbonyl)-pyrrolidine-2-carboxylic acid (1-cyano-cyclopropyl)-amide consumption was 40 mg/kg/day. (2S,4R)-4-[4-(1-methyl-1H-pyrazol-4-yl)-2-trifluoromethyl-benzenesulfonyl]-1-(1-trifluoromethyl-cyclopropanecarbonyl)-pyrrolidine-2-carboxylic acid (1-cyano-cyclopropyl)-amide was given via food admix (Ssniff Spezialdiäten, Germany) daily from one week before the first muPD-L1 immunization until day 23 to the group 5. […]
Nunc Maxisorp flat-bottom 96 well ELISA plates were coated with 100 μl per well of anti muPD-L1 (P1AE4930-001) at 5 μg/mL in NaHCO3100 mM buffer overnight at +4° C. […] 100 μl of substrate P-nitrophenyl phosphate ready to use (Life Technologies, Cat no 002212) were added per well and after 10 min incubation at room temperature, the OD at 405 nm was read as an end-point measurement with a Versamax ELISA reader.

Test [2] deals with CEA-specific IgG response. The experiment in a line: ADA against CEA-IL2v in wild-type mice over time, ELISA (Example 4, 63 days). It counts as in vivo, C57BL/6 wild type mice. The note with it: 40 mg/kg/day via food admix, primary and memory response, samples to day 63, vs vehicle. On the procedure: 15-week-old mice C57BL/6-Tg (hIgG1,k,l) and C57BL/6 wild type mixed gender were purchased from Taconic (Denmark) and housed at the animal facilities in room with air-conditioned under a 12 hours light/dark cycle in macrolon boxes with enriched environment and free access to water and food. 7×10 μg of CEA-IL2v (Batch no GLI0144-01) were injected at day 0, 4, 7, 11, 14, 18 and 21 for the primary response, and at day 49, 53, 56 and 60 for the memory response. The CEA-112v injections were done subcutaneously in the right flank or the left flank alternatively. The dosage of (2S,4R)-4-[4-(1-methyl-1H-pyrazol-4-yl)-2-trifluoromethyl-benzenesulfonyl]-1-(1-trifluoromethyl-cyclopropanecarbonyl)-pyrrolidine-2-carboxylic acid (1-cyano-cyclopropyl)-amide consumption was 40 mg/kg/day. […]
Nunc Maxisorp flat-bottom 96 well ELISA plates were coated with 100 μl per well of Humira or CEA-PGLALA respectively at 5 μg/mL in NaHCO3100 mM buffer overnight at +4° C. […] 100 μl of substrate P-nitrophenyl phosphate ready to use (Life Technologies, Cat no 002212) were added per well and after 10 min incubation at room temperature, the OD at 405 nm was read as an end-point measurement with a Versamax ELISA reader.

One compound from patent publication US12419862B2, “Use of a cathepsin s inhibitor against the formation of anti-drug antibodies” (Hoffmann-La Roche Inc., priority 2018, dated 2025) can be followed below.

In the case of `Cn1cc(-c2ccc(S(=O)(=O)[C@@H]3C[C@@H](C(=O)NC4(C#N)CC4)N(C(=O)C4(C(F)(F)F)CC4)C3)c(C(F)(F)F)c2)cn1` [cathepsin S inhibitor, (2S,4R)-4-[4-(1-methyl-1H-pyrazol-4-yl)-2-trifluoromethyl-benzenesulfonyl]-1-(1-trifluoromethyl-cyclopropanecarbonyl)-pyrrolidine-2-carboxylic acid (1-cyano-cyclopropyl)-amide], the “ADA to mPD-L1” value in test [1] is “significantly reduced ADA to mPD-L1”. For the same compound, the “ADA to CEA-IL2v (CEA-specific IgG) over time” value in test [2] was “reduces its levels in wild-type mice”.
